In patent US8476261B2, “Spirocyclic aminoquinolones as GSK-3 inhibitors” (Kyorin Pharmaceutical Co., Ltd., priority 2007, dated 2013):

Target: T1, recombinant full-length human GSK3β (Homo sapiens, UniProt P49841)
T1 construct: recombinant full-length human GSK3β (Upstate); purchased Upstate
Assay: cell-free GSK3 kinase assay (KinaseGlo luciferase)
Format: biochemical
Details: Table 1; 5 μM ATP, 1 hour at 30 degrees Celsius
Description: Proceed to KinaseGlo luciferase reaction.
Following the completion of the kinase reaction an equal volume of KinaseGlo luciferase reagent (Promega) is added and the luminescence read using a luminescence plate reader within 5-10 minutes.

T1 sequence (P49841 whole entry): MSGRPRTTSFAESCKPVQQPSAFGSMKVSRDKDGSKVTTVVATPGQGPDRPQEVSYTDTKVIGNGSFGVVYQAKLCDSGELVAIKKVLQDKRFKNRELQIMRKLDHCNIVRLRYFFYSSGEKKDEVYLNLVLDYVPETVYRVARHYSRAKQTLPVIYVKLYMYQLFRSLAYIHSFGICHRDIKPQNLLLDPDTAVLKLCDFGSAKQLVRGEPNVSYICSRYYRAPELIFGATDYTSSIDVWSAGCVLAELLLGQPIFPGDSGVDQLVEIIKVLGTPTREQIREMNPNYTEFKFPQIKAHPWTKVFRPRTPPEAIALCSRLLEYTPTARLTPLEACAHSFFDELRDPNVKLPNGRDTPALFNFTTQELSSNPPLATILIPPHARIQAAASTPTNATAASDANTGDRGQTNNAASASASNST

CC(COc1ccc(Cl)cc1)Nc1c(F)c(N)c2c(=O)c(C(=O)O)cn3c2c1OCC31CCCC1 (stereo not drawn) [Compound 74]
IC50: > 0.15 µM

Nc1c(F)c(NCCOc2ccc(-c3ccccc3)cc2)c2c3c1c(=O)c(C(=O)O)cn3C1(CCCC1)CO2 [Compound 75]
IC50: > 0.15 µM

Nc1c(F)c(NCCSc2nc3ccccc3[nH]2)c2c3c1c(=O)c(C(=O)O)cn3C1(CCCC1)CO2 [Compound 76]
IC50: > 0.15 µM

Nc1c(F)c(N[C@H]2CC[C@H](n3ccnc3)C2)c2c3c1c(=O)c(C(=O)O)cn3C1(CCCC1)CO2 [Compound 77]
IC50: < 0.015 µM

Nc1c(F)c(N[C@H]2CC[C@H](c3ccccn3)C2)c2c3c1c(=O)c(C(=O)O)cn3C1(CCCC1)CO2 [Compound 78]
IC50: < 0.015 µM

Nc1c(F)c(N[C@@H]2CC[C@H](c3ccccn3)C2)c2c3c1c(=O)c(C(=O)O)cn3C1(CCCC1)CO2 [Compound 79]
IC50: > 0.15 µM

Nc1c(F)c(NCCCc2ccncc2)c2c3c1c(=O)c(C(=O)O)cn3C1(CCCC1)CO2 [Compound 80]
IC50: < 0.015 µM

N#Cc1ccc(CCCNc2c(F)c(N)c3c(=O)c(C(=O)O)cn4c3c2OCC42CCCC2)nc1 [Compound 81]
IC50: < 0.015 µM

Nc1c(F)c(NCCNc2ccccn2)c2c3c1c(=O)ccn3C1(CCC1)CCO2 [Compound 82]
IC50: 0.016 to 0.06 µM

Nc1c(F)c(NCCCc2ccccn2)c2c3c1c(=O)ccn3C1(CCC1)CCO2 [Compound 83]
IC50: 0.061 to 0.15 µM

Nc1c(F)c(NCCCn2ccnc2)c2c3c1c(=O)ccn3C1(CCC1)CCO2 [Compound 84]
IC50: < 0.015 µM

Nc1c(F)c(NCCCc2ccccn2)c2c3c1c(=O)ccn3C1(CCCC1)CO2 [Compound 85]
IC50: 0.016 to 0.06 µM

NC(=O)c1cn2c3c(c(NCCNc4ccccn4)c(F)c(N)c3c1=O)OCCC21CCC1 [Compound 86]
IC50: < 0.015 µM

NNC(=O)c1cn2c3c(c(NCCNc4ccccn4)c(F)c(N)c3c1=O)OCCC21CCC1 [Compound 88]
IC50: < 0.015 µM

Nc1c(F)c(NCCNc2ccccn2)c2c3c1c(=O)c(C(=O)NO)cn3C1(CCC1)CCO2 [Compound 89]
IC50: < 0.015 µM

CNC(=O)c1cn2c3c(c(NCCNc4ccccn4)c(F)c(N)c3c1=O)OCCC21CCC1 [Compound 90]
IC50: > 0.15 µM

N#Cc1cn2c3c(c(NCCNc4ccccn4)c(F)c(N)c3c1=O)OCCC21CCC1 [Compound 91]
IC50: 0.016 to 0.06 µM

N#Cc1cn2c3c(c(NCCCn4ccnc4)c(F)c(N)c3c1=O)OCCC21CCC1 [Compound 93]
IC50: 0.016 to 0.06 µM

Cc1c(C(=O)O)c(=O)c2c(N)c(F)c(NCCNc3ccccn3)c3c2n1C1(CCC1)CCO3 [Compound 94]
IC50: 0.016 to 0.06 µM

Nc1c(Cl)c(NCCNc2ccccn2)c2c3c1c(=O)c(C(=O)O)cn3C1(CCC1)CCO2 [Compound 95]
IC50: 0.061 to 0.15 µM

Nc1c(F)c(NCCCn2ccnc2)c2c3c1c(=O)c(C(=O)O)cn3C1(CCCC1)CO2 [Compound 96]
IC50: < 0.015 µM

Nc1c(F)c(NCCCn2ccnc2)c2c3c1c(=O)c(C(=O)O)cn3C1(CCC1)CCO2 [Compound 97]
IC50: 0.016 to 0.06 µM

Nc1c(F)c(N2CCC(Nc3ccccn3)C2)c2c3c1c(=O)c(C(=O)O)cn3C1(CCCC1)CO2 (stereo not drawn) [Compound 98]
IC50: > 0.15 µM

Cc1cc(=O)c2c(N)c(F)c(NCCNc3ccccn3)c3c2n1C1(CCC1)CCO3 [Compound 99]
IC50: > 0.15 µM
